Data published in PMC12185579, “Impact of nephrotoxins and oxidants on survival and transport function of hiPSC-derived renal proximal tubular cells” (Archives of Toxicology, 2025).
“And” between values parts separate entries of the source, which are not always exact repeats. Identical values can stand only once. Like-named read-outs stand apart in the source and are kept apart here.

Tests used:
diffD9 [1] = experiment: FITC-albumin uptake at diffD9 after treatment at diffD3; format: cell-based, human; settings: treated 24 h at diffD3 with hiPSC's IC20 and IC50, analyzed at diffD9
Procedure: Cells were incubated with serum-free medium with/without 100 µg/ml FITC-albumin for 2 h at 37 °C, and uptake was stopped with ice-cold PBS. Cells were then harvested from Matrigel-coated wells with trypsin/EDTA, and albumin uptake was analyzed by flow cytometry [Becton Dickinson, Accuri™ C6 plus (Heidelberg, Germany)] as previously reported (Mboni-Johnston et al. [2023]).

diffD3 [2] = experiment: TUNEL assay (apoptosis), diffD3; format: cell-based, human; settings: diffD3, 24 h, IC20 and IC50 of the hiPSC
Procedure: (§1) To verify whether the substances analyzed induce apoptosis in the cells at different stages of differentiation, the TUNEL (terminal deoxynucleotidyl transferase-mediated dUTP-fluorescein nick-end labeling) assay was performed with cells grown on coverslips using the In-Situ Cell Death Detection Assay Kit (Roche GmbH, Grenzach-Wyhlen, Germany) according to the manufacturer’s instructions. The TUNEL assay visualizes free hydroxyl groups from fragmented DNA produced during apoptosis by labeling them with modified nucleotides through an enzymatic reaction (Gavrieli et al. [1992]). The coverslips were mounted with […]® Antifade Mounting Medium containing DAPI and sealed with nail polish. Fluorescence images were acquired using a fluorescence microscope (Olympus BX43 Upright Microscope, Olympus, Shinjuku, Tokyo, Japan) at 200-fold magnification and analyzed using ImageJ 1.51j8 (Schneider et al. [2012]). TUNEL-positive cells were referenced to the total number of cells and normalized to the untreated control.

[3] = test system: senescence-associated genes (β-GAL, IL-8, p21) in diffD3; experiment: RT-PCR senescence-associated genes, diffD3; format: cell-based, human; settings: diffD3, 48 h after a 24 h treatment
Procedure: (§2) RNA was isolated using the RNeasy Mini Kit and RNase-free DNase Set (Qiagen, Venlo, The Netherlands) according to the manufacturer’s protocol as reported previously (Mboni-Johnston et al. [2023]). The primer sequences (Table S1, supplement) used for the mRNA expression analyses were designed with the help of NCBI (https://www.ncbi.nlm.nih.gov/nuccore/) and validated for specificity. At the end of the run, data were analyzed using CFX Manager software (v3.1, Bio-Rad Laboratories, Hercules, CA, USA) according to the manufacturer’s instructions. All samples were run with three technical replicates. The Cq values obtained for the genes of interest were first normalized to the mean Cq values obtained for the housekeeping genes ACT-β and RPL-32 and then for the control samples and expressed as a fold of this mean value. Changes in gene expression of ≤ 0.5- and ≥ twofold were considered biologically relevant.

diffD9 [4] = experiment: EdU incorporation (proliferation), diffD9; format: cell-based, human; settings: diffD9, 24 h, hiPSC's IC20 and IC50
Procedure: (§3) To investigate the effect of toxins on the proliferation rate, the incorporation of EdU into S-phase cells was determined using the EdU-Click 488 assay according to the manufacturer’s protocol (Baseclick GmbH, Tutzing, Germany) as reported earlier (Mboni-Johnston et al. [2023]).

hiPSC, diffD3 and diffD9 [5] = experiment: Cell viability of all differentiation stages, with and without pan-caspase inhibitor QVD; format: cell-based, human; settings: 10 µM QVD
Procedure: (§4) After 24 h of exposure, the viability of the undifferentiated, differentiating, and differentiated cells was examined using the Alamar Blue Assay (O'Brien et al. [2000]), as described previously (Mboni-Johnston et al. [2023]). The relative viability of the cells in the corresponding untreated controls was set to 100%.

hiPSC [6] = experiment: TUNEL assay (apoptosis), hiPSC; format: cell-based, human; settings: 24 h, IC20 and IC50 of the hiPSC
Procedure: as §1

hiPSC [7] = test system: hiPSC; set-up: method as in Mboni-Johnston et al. [2023]; settings: as given in Fig. 7 legend, value from former study ref Mboni-Johnston et al. [2023], cited from earlier work
hiPSC, diffD3 and diffD9 [8] = test system: hiPSC, diffD3 and diffD9; set-up: method as in Mboni-Johnston et al. [2023]; settings: diffD3, differentiated PTELC ref Mboni-Johnston et al. [2023]; cited from earlier work
diffD9 [9] = test system: diffD9; set-up: method as in Mboni-Johnston et al. [2023]; settings: ref Mboni-Johnston et al. [2023]; cited from earlier work
diffD3 [10] = experiment: EdU incorporation (proliferation), diffD3; format: cell-based, human; settings: diffD3, 24 h, hiPSC's IC20 and IC50
Procedure: as §3

hiPSC [11] = experiment: EdU incorporation (proliferation), hiPSC; format: cell-based, human; settings: 24 h, hiPSC's IC20 and IC50
Procedure: as §3

[12] = test system: senescence-associated genes (β-GAL, IL-8, p21) in hiPSC; experiment: RT-PCR senescence-associated genes, hiPSC; format: cell-based, human; settings: 48 h after a 24 h treatment
Procedure: as §2

diffD9 [13] = experiment: TUNEL assay (apoptosis), diffD9; format: cell-based, human; settings: diffD9, 24 h, IC20 and IC50 of the hiPSC (CisPt: a higher concentration added)
Procedure: as §1

[14] = test system: stem cell markers, PTEC markers and transporters mRNA in diffD9; experiment: RT-PCR marker gene expression at diffD9 after treatment at diffD3; format: cell-based, human; settings: for expression of megalin and cubilin: treated at diffD3, analyzed at diffD9
Procedure: as §2

[15] = test system: senescence-associated genes (β-GAL, IL-8, p21) in diffD9; experiment: RT-PCR senescence-associated genes, diffD9; format: cell-based, human; settings: diffD9, 48 h after a 24 h treatment
Procedure: as §2

[16] = test system: diffD9 (hiPSC differentiated into PTELC); experiment: Alamar Blue cell viability, differentiated cells day 9; format: cell-based, human; settings: diffD9, 24 h treatment; for IC20: read-out: IC20 (inhibitory concentration where 20% of the cells are dead)
Procedure: as §4

[17] = test system: diffD3 (hiPSC differentiating into PTELC); experiment: Alamar Blue cell viability, differentiating cells day 3; format: cell-based, human; settings: for IC50 of diffD3, fold lower than those of hiPSC and diffD9: Alamar Blue, 24 h; for IC50: Homo sapiens, diffD3, 24 h treatment
Procedure: as §4

diffD9 [18] = experiment: FITC-albumin uptake (flow cytometry) in diffD9 treated at diffD9; format: cell-based, human; settings: diffD9, 24 h treatment (menadione: IC50)
Procedure: The effect of toxins on the transport function of hiPSC-derived PTELC was examined by adding fluorescently labeled bovine serum albumin (FITC-BSA) (Sigma-Aldrich, 10 mg/ml) to the culture medium. Cells were incubated with serum-free medium with/without 100 µg/ml FITC-albumin for 2 h at 37 °C, and uptake was stopped with ice-cold PBS. Cells were then harvested from Matrigel-coated wells with trypsin/EDTA, and albumin uptake was analyzed by flow cytometry [Becton Dickinson, Accuri™ C6 plus (Heidelberg, Germany)] as previously reported (Mboni-Johnston et al. [2023]).

[19] = test system: PTEC markers and transporters mRNA in diffD9; experiment: RT-PCR marker gene expression in diffD9 treated at diffD9; format: cell-based, human; settings: diffD9, 24 h; for Aqp-1 mRNA expression: IC20 and IC50, vs untreated diffD9; for Pept-1 mRNA expression: IC50 (tBHQ not statistically significant); for Meg (megalin) mRNA expression: Mena IC20 and IC50, tBHQ IC50 (not statistically significant)
Procedure: as §2

[20] = test system: human liver cell line HepG2; set-up: method as in Chen and Cederbaum [1997]; settings: HepG2, after 18 h of incubation ref Chen and Cederbaum [1997]; read-out: IC50 (cytotoxicity); cited from earlier work
hiPSC [21] = experiment: Alamar Blue cell viability, undifferentiated hiPSC; format: cell-based, human; settings: for IC20 / IC50: Homo sapiens; for IC20: read-out: hiPSC's IC20
Procedure: as §4

mammary epithelial cells = test system: mammary epithelial cells; set-up: method as in Jin et al. [2016]; settings: mammary epithelial cells ref Jin et al. [2016]; read-out: IC50 (cell viability); cited from earlier work
endothelial cells = test system: endothelial cells; set-up: method as in Karimi et al. [2019]; settings: endothelial cells ref Karimi et al. [2019]; read-out: IC50 (cell viability); cited from earlier work
[22] = as given in Fig. 7 legend, concentration used to treat diffD3 for 24 h
[23] = as given in Fig. 7 legend, concentration used to treat diffD3 for 24 h, read-out: hiPSC's IC50
[24] = hiPSC, 24 h treatment, read-out: IC50 (cell viability, Alamar Blue)

| Structure (SMILES) | albumin uptake (diffD9 [1]) | frequency of TUNEL-positive cells (diffD3 [2]) | mRNA expression of senescence-associated genes (β-GAL, IL-8, p21) [3] | EdU incorporation (cells in S-phase) vs untreated control (diffD9 [4]) | EdU incorporation (proliferation) vs untreated control (diffD3 [10]) | EdU incorporation (proliferation) vs untreated control (hiPSC [11]) | mRNA expression of senescence-associated genes (β-GAL, IL-8, p21) [15] | IC50 ([16]; Homo sapiens, 24 h) | IC20 ([16]; Homo sapiens) | IC50 [16] | IC50 of diffD3, fold lower than those of hiPSC and diffD9 [17] | IC50 [17] | albumin transport (FITC-albumin uptake) (diffD9 [18]) | Aqp-1 mRNA expression [19] | Pept-1 mRNA expression [19] | Meg (megalin) mRNA expression [19] | expression of megalin and cubilin [14] | IC20 (hiPSC [21]; [22]) | IC50 (hiPSC [21]; [23]) | IC50 (hiPSC [21]; [24]) | also measured |
| --- | --- | --- | --- | --- | --- | --- | --- | --- | --- | --- | --- | --- | --- | --- | --- | --- | --- | --- | --- | --- | --- |
| N.N.[Cl][Pt][Cl] [CisPt, cisplatin] | strong effect | increased in a dose-dependent manner | only p21 was significantly higher expressed in diffD3 | not affected | not affected | inhibited the likely proliferation-associated EdU incorporation in hiPSC in a dose-dependent manner | no extensive expression | – | – | – | – | – | – | – | – | – | – | – | – | – | cell viability under co-treatment with pan-caspase inhibitor QVD vs mono-treatment (hiPSC, diffD3 and diffD9 [5]): significant restoration of cell viability to almost control level; frequency of TUNEL-positive cells (hiPSC [6]): increased in a dose-dependent manner; IC20 (hiPSC [7]; read-out: hiPSC's IC20): 0.3 µM; IC50 (hiPSC [7]; read-out: hiPSC's IC50): 1 µM; relative sensitivity of differentiation stages (hiPSC, diffD3 and diffD9 [8]): hiPSC and diffD3 were more sensitive to CisPt than differentiated PTELC; albumin uptake capacity of PTELC (diffD9 [9]): reduced the albumin uptake capacity; mRNA expression of senescence-associated genes (β-GAL, IL-8, p21) [12]: no extensive expression; frequency of TUNEL-positive cells (diffD9 [13]): increased in a dose-dependent manner; long-term changes in marker transcripts ([14]; treated 24 h at diffD3 with iPSCs' IC20, analyzed at diffD9): all but two transcripts being significantly reduced |
| CC1=CC(=O)c2ccccc2C1=O [Mena, menadione] | no effect on albumin transport itself | significantly increased | – | no significant differences in EdU incorporation | inhibited proliferation | no significant differences in EdU incorporation | IL-8 levels significantly increased | 17.6 µM | 11 µM | 17 µM | about four | 4.1 µM | significant decrease | significant and dose-dependent decrease | increased significantly | significant and dose-dependent decrease | low but significant effect | 3 µM | 6 µM | 16.2 µM | IC50 ([16]; listed as Menadione): 18 µM; Nanog mRNA expression ([19]; IC20): significantly increased; CD13 mRNA expression ([19]; IC50): increased significantly; Pept-2 mRNA expression ([19]; IC50): reduced expression; IC50 [20]: 18 to 19 µM |
| CC(C)(C)c1cc(O)ccc1O [tBHQ, tert-butylhydroquinone] | – | significantly increased | IL-8 levels significantly increased | no significant differences in EdU incorporation | inhibited proliferation | no significant differences in EdU incorporation | – | 34.5 µM | 15 µM | 34 µM and 35 µM | 7- to 12 | 2.8 µM | increased the transport | significant dose-dependent decrease | increased above twofold | increased above twofold | neither showed a relevant effect | 4 µM | 8 µM | 18.5 µM | IC50 (mammary epithelial cells): 50 µM; IC50 (endothelial cells): 60 µM; Cad-16 mRNA expression ([19]; IC50, statistically significant): increased above twofold; sensitivity of hiPSC compared to diffD9 (hiPSC [21]; Alamar Blue, 24 h): twice as sensitive |
